# Assay results taken from US11618743B2, “Herbicidal compounds” (SYNGENTA PARTICIPATIONS AG, priority 2017, dated 2023).
# How the values were obtained:
# Test in all cases: Post-emergence efficacy, Method A
# Type in all cases: in vivo
# [1] = system: Amaranthus palmeri (AMAPA); conditions: Application rate 500 g/Ha, evaluated after 13 days; for Control of weed species AMAPA after post-emergence application (100=total damage to plant; 0=no damage to plant): Method A; for Control of weed species after post-emergence application, AMAPA: 100=total damage to plant, 0=no damage
# Experimental: (§1) Seeds of a variety of test species were sown in standard soil in pots. After cultivation for 14 days (post-emergence) under controlled conditions in a glasshouse (at 24/16° C., day/night; 14 hours light; 65% humidity), the plants were sprayed with an aqueous spray solution derived from the dissolution of the technical active ingredient formula (I) in a small amount of acetone and a special solvent and emulsifier mixture referred to as IF50 (11.12% Emulsogen EL360 TM+44.44% N-methylpyrrolidone+44.44% Dowanol DPM glycol ether), to create a 50 g/l solution which was then diluted to required concentration using 0.25% or 1% Empicol ESC70 (Sodium lauryl ether sulphate)+1% ammonium sulphate as diluent.
# (§2) The test plants were then grown in a glasshouse under controlled conditions (at 24/16° C., day/night; 14 hours light; 65% humidity) and watered twice daily. After 13 days the test was evaluated (100=total damage to plant; 0=no damage to plant).
# (§3) Ipomoea hederacea (IPOHE), Euphorbia heterophylla (EPHHL), Chenopodium album (CHEAL), Amaranthus palmeri (AMAPA), Lolium perenne (LOLPE), Digitaria sanguinalis (DIGSA), Eleusine indica (ELEIN), Echinochloa crus-galli (ECHCG), Setaria faberi (SETFA)
# [2] = system: Chenopodium album (CHEAL); conditions: Application rate 500 g/Ha, evaluated after 13 days; for Control of weed species CHEAL after post-emergence application (100=total damage to plant; 0=no damage to plant): Method A; for Control of weed species after post-emergence application, CHEAL: 100=total damage to plant, 0=no damage
# Experimental: as §1, §2, §3
# [3] = system: Digitaria sanguinalis (DIGSA); conditions: Application rate 500 g/Ha, evaluated after 13 days; for Control of weed species DIGSA after post-emergence application (100=total damage to plant; 0=no damage to plant): Method A; for Control of weed species after post-emergence application, DIGSA: 100=total damage to plant, 0=no damage
# Experimental: as §1, §2, §3
# [4] = system: Echinochloa crus-galli (ECHCG); conditions: Application rate 500 g/Ha, evaluated after 13 days; for Control of weed species ECHCG after post-emergence application (100=total damage to plant; 0=no damage to plant): Method A; for Control of weed species after post-emergence application, ECHCG: 100=total damage to plant, 0=no damage
# Experimental: as §1, §2, §3
# Eleusine indica (ELEIN) = conditions: Application rate 500 g/Ha, evaluated after 13 days; for Control of weed species ELEIN after post-emergence application (100=total damage to plant; 0=no damage to plant): Method A; for Control of weed species after post-emergence application, ELEIN: 100=total damage to plant, 0=no damage
# Experimental: as §1, §2, §3
# [5] = system: Euphorbia heterophylla (EPHHL); conditions: Application rate 500 g/Ha, evaluated after 13 days; for Control of weed species EPHHL after post-emergence application (100=total damage to plant; 0=no damage to plant): Method A; for Control of weed species after post-emergence application, EPHHL: 100=total damage to plant, 0=no damage
# Experimental: as §1, §2, §3
# Setaria faberi (SETFA) = conditions: Application rate 500 g/Ha, evaluated after 13 days; for Control of weed species SETFA after post-emergence application (100=total damage to plant; 0=no damage to plant): Method A; for Control of weed species after post-emergence application, SETFA: 100=total damage to plant, 0=no damage
# Experimental: as §1, §2, §3
Structure (SMILES),Control of weed species AMAPA after post-emergence application (100=total damage to plant; 0=no damage to plant) [1],Control of weed species CHEAL after post-emergence application (100=total damage to plant; 0=no damage to plant) [2],Control of weed species DIGSA after post-emergence application (100=total damage to plant; 0=no damage to plant) [3],Control of weed species ECHCG after post-emergence application (100=total damage to plant; 0=no damage to plant) [4],Control of weed species ELEIN after post-emergence application (100=total damage to plant; 0=no damage to plant) (Eleusine indica (ELEIN)),Control of weed species EPHHL after post-emergence application (100=total damage to plant; 0=no damage to plant) [5],Control of weed species SETFA after post-emergence application (100=total damage to plant; 0=no damage to plant) (Setaria faberi (SETFA)),"Control of weed species after post-emergence application, AMAPA [1]","Control of weed species after post-emergence application, CHEAL [2]","Control of weed species after post-emergence application, DIGSA [3]","Control of weed species after post-emergence application, ECHCG [4]","Control of weed species after post-emergence application, ELEIN (Eleusine indica (ELEIN))","Control of weed species after post-emergence application, EPHHL [5]","Control of weed species after post-emergence application, SETFA (Setaria faberi (SETFA))"
CCOC(=O)CC[n+]1ccc(-c2ncccn2)cn1.O=C([O-])C(F)(F)F [Compound A82],70,80,30,30,60,40,60,–,–,–,–,–,–,–
O=C(O)CC[n+]1ccc(-c2ccnc(O)n2)cn1.O=C([O-])C(F)(F)F [Compound A86],30,40,30,20,10,50,40,–,–,–,–,–,–,–
O=C(O)C(O)C[n+]1ccc(-c2ccncn2)cn1.O=C([O-])C(F)(F)F (stereo not drawn) [Compound A190],–,–,–,–,–,–,–,100,80,60,60,70,80,40
Cc1cncc(-c2cc[n+](CCC(=O)O)nc2)n1.O=C([O-])C(F)(F)F [Compound A85],90,90,90,70,90,100,90,–,–,–,–,–,–,–
"CC(C)OC(=O)CC[n+]1ccc(-c2ncccn2)cn1.O=C([O-])C(F)(F)F [Compound A81, isopropyl 3-(4-pyrimidin-2-ylpyridazin-1-ium-1-yl)propanoate 2,2,2-trifluoroacetate]",100,90,100,90,80,100,90,–,–,–,–,–,–,–
Cc1c[n+](CCC(=O)O)ncc1-c1ncccn1.O=C([O-])C(F)(F)F [Compound A153],–,–,–,–,–,–,–,90,60,20,40,20,40,20
O=C(O)CC[n+]1ccc(-c2ncccc2C(F)(F)F)cn1.O=C([O-])C(F)(F)F [Compound A128],30,10,30,30,50,0,30,–,–,–,–,–,–,–
Cc1n[n+](CCC(=O)O)ccc1-c1ncccn1.O=C([O-])C(F)(F)F [Compound A132],90,30,90,70,90,30,100,–,–,–,–,–,–,–
COC(=O)CC[n+]1ccc(-c2ccncc2)cn1.O=C([O-])C(F)(F)F [Compound A203],–,–,–,–,–,–,–,100,90,70,50,60,50,60
Nc1cc(-c2cc[n+](CCC(=O)O)nc2)nc(N)n1.O=C([O-])C(F)(F)F [Compound A188],–,–,–,–,–,–,–,90,50,40,50,20,30,30
COC(=O)CC[n+]1ccc(-c2cccnn2)cn1.O=C([O-])C(F)(F)F [Compound A139],80,100,100,100,100,90,100,–,–,–,–,–,–,–
O=C(O)CC[n+]1ccc(-c2ccc(C(F)(F)F)nn2)cn1.O=C([O-])C(F)(F)F [Compound A126],100,80,80,80,90,100,100,–,–,–,–,–,–,–
O=C([O-])C(F)(F)F.O=S(=O)(O)CCC[n+]1ccc(-c2cnccn2)cn1 [Compound A10],100,100,60,30,50,100,60,–,–,–,–,–,–,–
O=C(O)CC[n+]1ccc(-c2ccccn2)cn1.O=C([O-])C(F)(F)F [Compound A148],100,40,50,50,40,60,50,–,–,–,–,–,–,–
O=C(O)CC[n+]1ccc(-c2ccnc(C(F)(F)F)n2)cn1.O=C([O-])C(F)(F)F [Compound A118],80,80,90,40,70,90,70,–,–,–,–,–,–,–
